# According to patent publication US12612401B2, “Crystalline forms of an S1P receptor modulator” (Oppilan Pharma Limited, priority 2022, dated 2026):
# Legend:
# human S1P1 = biological target: T1, human S1P1 (Homo sapiens, UniProt P21453); test: GTPγS binding assay (scintillation proximity assay); format: biochemical; conditions: S1P1 membrane from CHO cells expressing full-length human S1P1; GTPγ35S, 60 minutes
# T1 construct: CHO-Ki Gαqi5 cells expression full-length human S1P1; expressed in transfected cells; host or cells: CHO-K1 Gαqi5 cells (printed 'CHO-Ki Gαqi5'), membranes
# T1 sequence (P21453 whole entry): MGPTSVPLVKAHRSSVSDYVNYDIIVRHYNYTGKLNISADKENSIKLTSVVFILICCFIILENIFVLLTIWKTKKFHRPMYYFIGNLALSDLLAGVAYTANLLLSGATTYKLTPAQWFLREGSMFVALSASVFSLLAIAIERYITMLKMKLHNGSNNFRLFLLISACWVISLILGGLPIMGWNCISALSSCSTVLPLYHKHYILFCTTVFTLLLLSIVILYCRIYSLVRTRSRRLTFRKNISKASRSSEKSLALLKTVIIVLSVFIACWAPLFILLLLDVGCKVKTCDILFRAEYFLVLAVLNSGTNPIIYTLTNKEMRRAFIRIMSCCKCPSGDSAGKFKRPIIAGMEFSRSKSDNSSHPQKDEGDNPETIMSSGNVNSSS
# Method: S1P1 membrane is prepared from CHO-Ki Gαqi5 cells expression full-length human S1P1. Scintillation proximity assay (SPA) is performed by incubating membranes, GTPγ^35S, and compounds at various concentrations for 60 minutes. Wheat germ agglutinin-coated SPA beads are added and incubated for 60 minutes before centrifugation and scintillation counting. EC50 data for Compound 1 found to be <1 μM.
# [1] = Thermodynamic stability relationship of anhydrates (heating; slurry competition); format: physicochemical; conditions: for XRPD result, slurry competition Form 6 and Form 1: five days
# Method: As a result, slurry competition was performed for Form 6 and Form 1 in acetone and THF systems at 5° C., RT and 50° C. After stirring at desired temperature for five days, the solids were isolated and analyzed by XRPD.
# [2] = Solubility evaluation of Form 1 and Form 2 in DCM/MeOH; format: physicochemical; conditions: for concentration dissolved in DCM/MeOH: room temperature or 50° C.
# Method: The solubility of Form 1 and Form 2 was evaluated in the same vehicle. Form 1 or Form 2 was added into DCM/MeOH and stirred to dissolve at room temperature or 50° C. A certain amount of HPMC-AS was then added into solution at room temperature, if a clear solution was obtained. Form 2 dissolved in DCM/MeOH at a concentration of 13 mg/mL, while Form 1 dissolved in a lower concentration, 10 mg/mL.
# [3] = Critical water activity study between Form 1 and Form 7; format: physicochemical; conditions: for XRPD result after slurry: RT, overnight
# Description: Critical water activity between anhydrous From 1 and hydrous Form 7 was investigated via slurry in MeOH/H2O system with various water activities at room temperature. After stirring overnight, the solids were isolated and analyzed by XRPD.
# [4] = Dynamic vapor sorption (DVS); format: physicochemical; conditions: 25° C.
# Method: DVS studies were performed using a DVS Intrinsic (SMS, UK). 10 to 20 mg of compound was transferred into the DVS and the weight change recorded with respect to a varying atmospheric humidity at 25° C. using the following parameters: • Drying at 25° C. until dm/dt<±0.002%/min • Min time: 10 min, Max time: 180 min • Equilibrium: 60 min • Cycle: 0, 5, 10, 20, 30, 40, 50, 60, 70, 80, 90, 80, 70, 60, 50, 40, 30, 20, 10, 5, 0 • Characterize the sample after the DVS experiment by XRPD
# [5] = Stability study of Form 1 on storage (XRPD and HPLC); format: physicochemical; conditions: 80° C. for one day; 25° C./60% RH and 40° C./75% RH for one week and one month
# Method: Physicochemical stability was evaluated for Form 1 via storing samples under 80° C. for one day, 25° C./60% RH and 40° C./75% RH for one week and one month.
# [6] = Form 2 stability via slurry in acetone and methanol/water; format: physicochemical; conditions: solids isolated at 1 h, 3 h, 5 h, 29 h
# Method: Form 2 stability was also evaluated via slurry in acetone and methanol/water at RT. Solids were isolated at 1 h, 3 h, 5 h and 29 h time points.
structure (smiles),measurement,setting,value
"O=C1CC[C@@H](Oc2cc(Cl)c(-c3noc(-c4cn5cc(C(F)(F)F)cc(Cl)c5n4)n3)cc2Cl)CN1 [Compound 1, (R)-5-(2,5-dichloro-4-(5-(8-chloro-6-(trifluoromethyl)imidazo[1,2-a]pyridin-2-yl)-1,2,4-oxadiazol-3-yl)phenoxy)piperidin-2-one]",EC50,human S1P1,< 1 µM
"O=C1CC[C@@H](Oc2cc(Cl)c(-c3noc(-c4cn5cc(C(F)(F)F)cc(Cl)c5n4)n3)cc2Cl)CN1 [Form 1, (R)-5-(2,5-dichloro-4-(5-(8-chloro-6-(trifluoromethyl)imidazo[1,2-a]pyridin-2-yl)-1,2,4-oxadiazol-3-yl)phenoxy)piperidin-2-one]","XRPD result, slurry competition Form 6 and Form 1","[1]; THF, 5° C.",Form 1
same,"XRPD result, slurry competition Form 6 and Form 1","[1]; THF, 50° C.",Form 1
same,"XRPD result, slurry competition Form 6 and Form 1","[1]; THF, room temperature",Form 1
same,"XRPD result, slurry competition Form 6 and Form 1","[1]; acetone, 5° C.",Form 1
same,"XRPD result, slurry competition Form 6 and Form 1","[1]; acetone, 50° C.",Form 1
same,"XRPD result, slurry competition Form 6 and Form 1","[1]; acetone, room temperature",Form 1
same,"Result (dissolution on heating), Experiment E","[2]; DCM 1.633 g, MeOH 0.334 g, Form 1 0.0165 g, AcOH 0.0022 g, HPMC-AS 0.0549 g",Dissolved at 50 °C
same,"Result (clarity after stirring for 64 h), Experiment E","[2]; DCM 1.633 g, MeOH 0.334 g, Form 1 0.0165 g, AcOH 0.0022 g, HPMC-AS 0.0549 g, after stirring for 64 h",Clear at 25 °C after
same,"Result (dissolution), Experiment C","[2]; DCM 1.633 g, MeOH 0.334 g, Form 1 0.02 g, AcOH 0.0022 g, HPMC-AS 0.0664 g",Hazy at 50 °C
same,"Result (dissolution on heating), Experiment D","[2]; DCM 4.083 g, MeOH 0.834 g, Form 1 0.0414 g, HPMC-AS 0.1378 g",Dissolved at 50 °C
same,"Result (clarity after stirring for 64 h), Experiment D","[2]; DCM 4.083 g, MeOH 0.834 g, Form 1 0.0414 g, HPMC-AS 0.1378 g, after stirring for 64 h",Clear at 25 °C after
same,"Result (dissolution), Experiment B","[2]; DCM 4.083 g, MeOH 0.835 g, Form 1 0.05 g, HPMC-AS 0.166 g",Hazy at 50 °C
same,concentration dissolved in DCM/MeOH,[2],10000 µg/mL
same,relative stability versus Form 7,"[3]; MeOH/H2O slurry, water activities 0.0-1.0, RT",more stable under selected conditions
same,hygroscopicity,[4]; DVS,slightly hygroscopic
same,Post-DVS analysis by XRPD,[4]; after DVS cycle 0-90-0% RH,no change
same,moisture uptake,[4]; between 0-80% RH,0.3%
same,change in HPLC purity after storage (chemical stability),[5],no substantial change in HPLC purity
same,form change after storage (XRPD),[5],no form change
"O=C1CC[C@@H](Oc2cc(Cl)c(-c3noc(-c4cn5cc(C(F)(F)F)cc(Cl)c5n4)n3)cc2Cl)CN1 [Form 2, (R)-5-(2,5-dichloro-4-(5-(8-chloro-6-(trifluoromethyl)imidazo[1,2-a]pyridin-2-yl)-1,2,4-oxadiazol-3-yl)phenoxy)piperidin-2-one]","Result (dissolution), Experiment A","[2]; DCM 3.679 g, MeOH 0.752 g, Form 2 0.05 g, HPMC-AS 0.150 g",Clear at room
same,solubility compared with Form 1,[2]; DCM/MeOH vehicle,better solubility than Form 1
same,concentration dissolved in DCM/MeOH,[2],13000 µg/mL
same,XRPD analysis after slurry,[6]; slurry in acetone at RT,Form 1 formation in both solvents within one hour
same,XRPD analysis after slurry,[6]; slurry in methanol/water at RT,Form 1 formation in both solvents within one hour
"O=C1CC[C@@H](Oc2cc(Cl)c(-c3noc(-c4cn5cc(C(F)(F)F)cc(Cl)c5n4)n3)cc2Cl)CN1 [Form 5, (R)-5-(2,5-dichloro-4-(5-(8-chloro-6-(trifluoromethyl)imidazo[1,2-a]pyridin-2-yl)-1,2,4-oxadiazol-3-yl)phenoxy)piperidin-2-one]",form change during heating,"[1]; heating, exothermic signal observed",Form 6 formed at elevated temperature
"O=C1CC[C@@H](Oc2cc(Cl)c(-c3noc(-c4cn5cc(C(F)(F)F)cc(Cl)c5n4)n3)cc2Cl)CN1 [Form 6, (R)-5-(2,5-dichloro-4-(5-(8-chloro-6-(trifluoromethyl)imidazo[1,2-a]pyridin-2-yl)-1,2,4-oxadiazol-3-yl)phenoxy)piperidin-2-one]",thermodynamic relationship to Form 5,[1]; according to the Burger-Ramberger Rules,monotropically related to Form 5 and is thermodynamically more stable
"O=C1CC[C@@H](Oc2cc(Cl)c(-c3noc(-c4cn5cc(C(F)(F)F)cc(Cl)c5n4)n3)cc2Cl)CN1 [Form 7, (R)-5-(2,5-dichloro-4-(5-(8-chloro-6-(trifluoromethyl)imidazo[1,2-a]pyridin-2-yl)-1,2,4-oxadiazol-3-yl)phenoxy)piperidin-2-one]",XRPD result after slurry,"[3]; MeOH/H2O 0:1000, Aw 1.0",Form 1
same,XRPD result after slurry,"[3]; MeOH/H2O 219:781, Aw 0.9",Form 1
same,XRPD result after slurry,"[3]; MeOH/H2O 418:582, Aw 0.8",Form 1
same,XRPD result after slurry,"[3]; MeOH/H2O 573:427, Aw 0.7",Form 1
same,XRPD result after slurry,"[3]; MeOH/H2O 687:313, Aw 0.6",Form 1
same,XRPD result after slurry,"[3]; MeOH/H2O 775:225, Aw 0.5",Form 1
same,XRPD result after slurry,"[3]; MeOH/H2O 844:156, Aw 0.4",Form 1
same,XRPD result after slurry,"[3]; MeOH/H2O 893:107, Aw 0.3",Form 1
same,XRPD result after slurry,"[3]; MeOH/H2O 937:63, Aw 0.2",Form 1
same,XRPD result after slurry,"[3]; MeOH/H2O 1000:0, Aw 0.0",Form 1
same,form conversion in MeOH/H2O slurry,"[3]; all water activities at RT, stirring overnight",converted to Form 1
